Reference: ChEMBL document CHEMBL1142346, “Quantitative structural-activity relationship (QSAR) study for fungicidal activities of thiazoline derivatives against rice blast” (2008)

tested on: Pyricularia grisea; assay: Antifungal activity against Magnaporthe grisea infected rice plant assessed as logarithm of fungal control value at 100 ppm after 5 days; assay type: functional

Structure (SMILES)	Activity
CCc1ccc(NC(=O)Cc2cs/c(=N\c3ccc(F)c([N+](=O)[O-])c3)n2C)cc1	1.98
COc1ccc(NC(=O)Cc2cs/c(=N/c3ccc(OC(F)(F)F)cc3)n2C)cc1	1.99
Cn1c(CC(=O)Nc2ccc(Oc3ccccc3)cc2)cs/c1=N/c1ccc(Br)cc1	1.23
CCc1ccc(NC(=O)Cc2cs/c(=N\c3ccc(Cl)cc3F)n2C)cc1	1.99
Cc1ccc(NC(=O)Cc2cs/c(=N/c3ccc(F)cc3)n2C)cc1	1.96
COc1ccc(NC(=O)Cc2cs/c(=N\c3ccc(F)c(Cl)c3)n2C)cc1	1.98
CCc1ccc(NC(=O)Cc2cs/c(=N\c3ccc(F)cc3Cl)n2C)cc1	1.98
CC(C)c1ccc(NC(=O)Cc2cs/c(=N/c3ccc(C(F)(F)F)cc3)n2C)cc1	1.8
CCc1ccc(NC(=O)Cc2cs/c(=N\c3ccc(C)cc3Br)n2C)cc1	1.94
CCCCOc1ccc(NC(=O)Cc2cs/c(=N/c3ccc(C(F)(F)F)cc3)n2C)cc1	1
CCc1ccc(NC(=O)Cc2cs/c(=N\c3cccc([N+](=O)[O-])c3)n2C)cc1	1.99
CCc1ccc(NC(=O)Cc2cs/c(=N/c3ccc(Oc4ccccc4)cc3)n2C)cc1	1.98
Cc1ccc(/N=c2\scc(CC(=O)Nc3ccc(OC(F)(F)F)cc3)n2C)c(C)c1	1.23
COc1ccc(NC(=O)Cc2cs/c(=N\c3cccc(Br)c3)n2C)cc1	1.99
Cn1c(CC(=O)Nc2ccc([N+](=O)[O-])cc2)cs/c1=N\c1cccc(F)c1	1.23
COc1ccc(NC(=O)Cc2cs/c(=N/c3ccc([N+](=O)[O-])cc3)n2C)cc1	2
COc1ccc(NC(=O)Cc2cs/c(=N\c3ccc(C)c(F)c3)n2C)cc1	1.98
COc1ccc(NC(=O)Cc2cs/c(=N\c3cccc(C)c3)n2C)cc1	1.98
COc1ccc(NC(=O)Cc2cs/c(=N\c3ccccc3F)n2C)cc1	1.99
Cn1c(CC(=O)Nc2ccc(C(F)F)cc2)cs/c1=N\c1ccc(Cl)cc1	1.52
Cn1c(CC(=O)Nc2ccc(Cl)cc2)cs/c1=N\c1ccc(F)c(Cl)c1	1.98
CCc1ccc(NC(=O)Cc2cs/c(=N\c3cccc(Cl)c3C)n2C)cc1	1.95
Cn1c(CC(=O)Nc2ccc(C#N)cc2)cs/c1=N\c1ccc(F)cc1F	1.23
CCc1ccc(NC(=O)Cc2cs/c(=N\c3ccc(C#N)c(Cl)c3)n2C)cc1	1.98
Cn1c(CC(=O)Nc2ccc(Oc3ccccc3)cc2)cs/c1=N/c1ccc(Oc2ccccc2)cc1	1.4

Structure (SMILES)	Activity
CCc1ccc(NC(=O)Cc2cs/c(=N\c3ccc(Cl)cc3Cl)n2C)cc1	1.96
CCc1ccc(NC(=O)Cc2cs/c(=N/c3ccc(C#N)cc3)n2C)cc1	1.92
Cn1c(CC(=O)Nc2ccc(Cl)cc2)cs/c1=N\c1ccc(OC(F)(F)F)cc1	1.82
CCCCOc1ccc(NC(=O)Cc2cs/c(=N\c3cccc(F)c3)n2C)cc1	1
CCOc1ccc(/N=c2/scc(CC(=O)Nc3ccc(OC)cc3)n2C)cc1	1.98
COc1ccccc1/N=c1\scc(CC(=O)Nc2ccc(OC(F)(F)F)cc2)n1C	0.7
COc1ccc(NC(=O)Cc2cs/c(=N\c3ccc(Cl)c(C(F)(F)F)c3)n2C)cc1	2
CCc1ccc(/N=c2\scc(CC(=O)Nc3ccc(OC)cc3)n2C)cc1	1.98
Cn1c(CC(=O)Nc2ccc(OC(F)(F)F)cc2)cs/c1=N\c1cccc(C(F)(F)F)c1	1.7
Cn1c(CC(=O)Nc2ccc(OC(F)(F)F)cc2)cs/c1=N/c1ccc(Cl)cc1	1.52
Cn1c(CC(=O)Nc2ccc(Cl)cc2)cs/c1=N\c1cccc(F)c1	1.96
CCCCc1ccc(NC(=O)Cc2cs/c(=N\c3cccc(F)c3)n2C)cc1	1
CCc1ccc(NC(=O)Cc2cs/c(=N\c3ccc(Br)c(C)c3)n2C)cc1	1.98
Cn1c(CC(=O)Nc2ccc(Oc3ccccc3)cc2)cs/c1=N\c1cccc(F)c1	1.23
COc1ccc(NC(=O)Cc2cs/c(=N\c3cccc([N+](=O)[O-])c3)n2C)cc1	1.99
Cn1c(CC(=O)Nc2ccc(Cl)cc2)cs/c1=N\c1ccc(Oc2ccccc2)cc1	1.92
CCc1ccc(NC(=O)Cc2cs/c(=N\c3ccc(OC)cc3C)n2C)cc1	2
COc1ccc(NC(=O)Cc2cs/c(=N\c3ccc(C(F)(F)F)cc3)n2C)cc1	1.99
Cn1c(CC(=O)Nc2ccc([N+](=O)[O-])cc2)cs/c1=N/c1ccc(F)cc1	0.9
CCc1ccc(NC(=O)Cc2cs/c(=N/c3ccc(-c4ccccc4)cc3)n2C)cc1	1.99
COc1ccc(NC(=O)Cc2cs/c(=N\c3cccc(C(F)(F)F)c3)n2C)cc1	2
CCCCCOc1ccc(/N=c2/scc(CC(=O)Nc3ccc(CC)cc3)n2C)cc1	1.96
CCc1ccc(NC(=O)Cc2cs/c(=N\c3ccc(Br)cc3)n2C)cc1	1.98
Cn1c(CC(=O)Nc2ccc([N+](=O)[O-])cc2)cs/c1=N\c1ccc(F)cc1F	1.23
COc1ccc(/N=c2/scc(CC(=O)Nc3ccc(OC(F)(F)F)cc3)n2C)cc1	1.4

Structure (SMILES)	Activity
CCc1ccc(NC(=O)Cc2cs/c(=N/c3ccc(C(C)=O)cc3)n2C)cc1	2
Cn1c(CC(=O)Nc2ccc(OC(F)(F)F)cc2)cs/c1=N\c1cccc(Br)c1	1.7
CCCCc1ccc(/N=c2/scc(CC(=O)Nc3ccc(OC)cc3)n2C)cc1	1.98
CC(C)Oc1ccc(/N=c2/scc(CC(=O)Nc3ccc(C(F)F)cc3)n2C)cc1	1.7
CCCCc1ccc(NC(=O)Cc2cs/c(=N\c3ccc(F)c(Cl)c3)n2C)cc1	1.3
CCc1ccc(NC(=O)Cc2cs/c(=N\c3ccc(C)cc3Cl)n2C)cc1	2
COc1ccc(NC(=O)Cc2cs/c(=N\c3ccc(Cl)c(Cl)c3)n2C)cc1	1.98
COc1ccc(NC(=O)Cc2cs/c(=N\c3ccccc3C(C)C)n2C)cc1	1.9
CCc1ccc(NC(=O)Cc2cs/c(=N/c3ccc(CC#N)cc3)n2C)cc1	2
Cn1c(CC(=O)Nc2ccc(OC(F)(F)F)cc2)cs/c1=N\c1ccc(F)cc1	0.9
COc1ccc(NC(=O)Cc2cs/c(=N\c3cccc(F)c3)n2C)cc1	1.97
CCc1ccc(NC(=O)Cc2cs/c(=N\c3ccc(F)c(Cl)c3)n2C)cc1	1.98
CCCCCCc1ccc(/N=c2/scc(CC(=O)Nc3ccc(CC)cc3)n2C)cc1	2
COc1ccc(NC(=O)Cc2cs/c(=N/c3ccc(SC)cc3)n2C)cc1	1.96
Cn1c(CC(=O)Nc2ccc(Cl)cc2)cs/c1=N\c1ccc(-c2ccccc2)cc1	1.98
CCc1ccc(NC(=O)Cc2cs/c(=N/c3ccc(OC(F)(F)F)cc3)n2C)cc1 (stereo in doubt; 5)	1.99
COc1ccc(NC(=O)Cc2cs/c(=N\c3ccc(Cl)cc3F)n2C)cc1	1.97
COc1ccc(/N=c2\scc(CC(=O)Nc3ccc(C(F)F)cc3)n2C)cc1	1.4
Cn1c(CC(=O)Nc2ccc([N+](=O)[O-])cc2)cs/c1=N/c1ccc(C#N)cc1	0.7
COc1ccc(NC(=O)Cc2cs/c(=N\c3ccccc3Cl)n2C)cc1	1.98
COc1ccc(NC(=O)Cc2cs/c(=N\c3ccc(C)cc3C)n2C)cc1	1.96
Cc1ccc(NC(=O)Cc2cs/c(=N\c3ccccc3F)n2C)cc1	1.94
CCc1ccc(NC(=O)Cc2cs/c(=N/c3ccc(I)cc3)n2C)cc1	1.97
Cc1ccc(NC(=O)Cc2cs/c(=N/c3ccc(Br)cc3)n2C)cc1	1.94
CCc1ccc(NC(=O)Cc2cs/c(=N/c3ccc(Cl)cc3)n2C)cc1	2

Structure (SMILES)	Activity
Cn1c(CC(=O)Nc2ccc(Oc3ccccc3)cc2)cs/c1=N\c1cccc(Br)c1	0.9
Cn1c(CC(=O)Nc2ccc(Oc3ccccc3)cc2)cs/c1=N\c1ccc(F)cc1F	1.23
CCc1ccc(NC(=O)Cc2cs/c(=N\c3ccc(Br)cc3F)n2C)cc1	2
CCOc1ccc(NC(=O)Cc2cs/c(=N\c3ccc(F)c(Cl)c3)n2C)cc1	1.94
CCOc1ccc(NC(=O)Cc2cs/c(=N\c3cccc(Br)c3)n2C)cc1	1.91
CCc1ccc(NC(=O)Cc2cs/c(=N\c3ccc(Br)cc3C)n2C)cc1	1.98
CCOc1ccc(NC(=O)Cc2cs/c(=N\c3ccc(F)cc3F)n2C)cc1	1.9
COc1ccc(NC(=O)Cc2cs/c(=N\c3ccc(OC)c(Cl)c3)n2C)cc1	1.98
CCCCc1ccc(/N=c2\scc(CC(=O)Nc3ccc(Cl)cc3)n2C)cc1	1.97
COc1ccc(NC(=O)Cc2cs/c(=N\c3ccc(F)cc3F)n2C)cc1	1.97
Cn1c(CC(=O)Nc2ccc(Cl)cc2)cs/c1=N\c1cccc(Br)c1	1.98
CCc1ccc(NC(=O)Cc2cs/c(=N/c3ccc(OC(F)(F)F)cc3)n2C)cc1 (stereo in doubt; 8)	1.93
COc1ccc(NC(=O)Cc2cs/c(=N\c3ccccc3Br)n2C)cc1	1.92
CCc1ccc(NC(=O)Cc2cs/c(=N\c3ccccc3F)n2C)cc1	1.99
Cn1c(CC(=O)Nc2ccc(C(F)F)cc2)cs/c1=N\c1ccc(Br)cc1	1.4
Cn1c(CC(=O)Nc2ccc(Br)cc2)cs/c1=N\c1cccc(F)c1	1.9
Cn1c(CC(=O)Nc2ccc(OC(F)(F)F)cc2)cs/c1=N\c1cccc(F)c1	1.62
Cc1ccc(NC(=O)Cc2cs/c(=N\c3ccc(F)cc3F)n2C)cc1	1.99
COc1ccc(NC(=O)Cc2cs/c(=N/c3ccc(Cl)cc3)n2C)cc1	1.97
CCCCc1ccc(/N=c2/scc(CC(=O)Nc3ccc([N+](=O)[O-])cc3)n2C)cc1	1.11
Cn1c(CC(=O)Nc2ccc(Br)cc2)cs/c1=N\c1cccc(Br)c1	1.99
CCc1ccc(NC(=O)Cc2cs/c(=N\c3ccc([N+](=O)[O-])cc3OC)n2C)cc1	1.81
CCCCc1ccc(/N=c2/scc(CC(=O)Nc3ccc(CC)cc3)n2C)cc1	1.99
COc1cccc(/N=c2\scc(CC(=O)Nc3ccc(Cl)cc3)n2C)c1	1.76
